Molecular target: T1, Aurora A (Homo sapiens, UniProt O14965)
T1 construct: gene AURKA
T1 sequence (O14965 1-403): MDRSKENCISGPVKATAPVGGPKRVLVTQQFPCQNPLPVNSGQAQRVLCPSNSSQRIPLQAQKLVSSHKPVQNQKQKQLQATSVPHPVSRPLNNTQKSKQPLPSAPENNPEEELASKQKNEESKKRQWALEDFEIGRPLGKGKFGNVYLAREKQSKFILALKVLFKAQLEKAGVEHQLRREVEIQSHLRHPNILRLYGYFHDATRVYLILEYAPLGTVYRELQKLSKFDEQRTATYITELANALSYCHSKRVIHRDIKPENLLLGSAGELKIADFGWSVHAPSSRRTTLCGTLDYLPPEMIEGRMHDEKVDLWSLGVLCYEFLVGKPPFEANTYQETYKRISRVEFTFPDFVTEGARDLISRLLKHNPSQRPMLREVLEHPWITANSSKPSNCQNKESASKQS
Assay: radiometric […]-ATP kinase assay with purified kinase (Dundee panel; dose-response)
Assay type: biochemical

Question: With `CC(=O)OC(C)(C)/C=C/C(=O)[C@](C)(O)[C@H]1[C@H](O)C[C@@]2(C)[C@@H]3CC=C4[C@@H](C[C@H](O)C(=O)C4(C)C)[C@]3(C)C(=O)C[C@]12C` [CuB, Cucurbitacin B] as the compound, how does the IC50 read?
Answer: Its IC50 is 100 nM.
